# According to patent publication US20170027968A1, “ANTI-CANCER AGENT” (KTN BIOTEC, INC., priority 2013, published 2017):
# Key:
# Human PTP1B (GST fused) = molecular target: T1, Human PTP1B (GST fused) (Homo sapiens, UniProt P18031); experiment: Assay of PTP1B activity under cell-free conditions (p-NPP substrate); conditions: 100 μM, preincubated 37° C. 30 min, p-NPP 10 mM 60 min, FIG. 1B
# T1 sequence (P18031 1-435): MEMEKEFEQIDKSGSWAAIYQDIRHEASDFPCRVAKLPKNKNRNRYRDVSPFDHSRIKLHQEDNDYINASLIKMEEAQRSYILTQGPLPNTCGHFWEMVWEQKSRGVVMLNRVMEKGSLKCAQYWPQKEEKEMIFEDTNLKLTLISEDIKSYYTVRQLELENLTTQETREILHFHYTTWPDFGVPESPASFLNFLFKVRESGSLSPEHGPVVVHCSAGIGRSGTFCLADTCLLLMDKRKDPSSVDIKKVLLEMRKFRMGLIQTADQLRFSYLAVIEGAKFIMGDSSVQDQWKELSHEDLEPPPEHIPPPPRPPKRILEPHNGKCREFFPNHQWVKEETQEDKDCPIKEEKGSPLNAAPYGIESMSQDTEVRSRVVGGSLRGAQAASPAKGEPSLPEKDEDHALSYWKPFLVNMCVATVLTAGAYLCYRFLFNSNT
# Text: (§4) Human recombinant PP2A was purchased from Millipore (Billerica, Mass., USA). Human PTP1B was cloned to pGEX-6P-3 vector having a GST tag on the NH2 terminal, and expressed in competent E. coli 3L21 (DE3) suitable for transformation and protein expression. GST fused PTP1B was affinity-purified using glutathione sepharose 4B (GE Healthcare Bio-Science KK, Tokyo, Japan). They were reacted with p-nitrophenylphosphate (p-NPP) (Sigma, St. Louis, Mo., USA) as a substrate, and each phosphatase activity was measured. PP2A (0.2 U/well) or PTP1B (1 mg/well) was preincubated in a reaction medium at 37° C. for 30 min. in the presence and absence of a phosphatase inhibitor (okadaic acid; 2 nM, sodium vanadate; 1 μM) and, phosphatidylethanolamine (DAPE, DLPE, DOPE, DPPE; 100 μM, all obtained from Avanti Polar Lipids, Inc. (Alabaster, Ala., USA)). • reaction medium for PP2A: 50 mM Tris-HCl, 0.1 mM EGTA, 0.1% (v/v) 2-mercaptoethanol, pH 7.0 • reaction medium for PTP1B: 50 mM HEPES, 1 mM EDTA, 50 mM NaCl, 1 mM dithiothreitol, pH 7.2
# (§5) Then, p-NPP (0.5 mM for PP2A, 10 mM for PTP1B) was added to the reaction medium and incubation was continued for 60 min. The reaction was discontinued by adding 0.1N NaOH. Dephosphorylated p-NPP, namely, p-NP, was quantified at absorbance 405 nm by using SpectraMax PLUS384 (Molecular Devices, Sunnyvale, Calif., USA).
# [1] = tested on: Met5A (human non-malignant mesothelioma cell); experiment: Cell viability assay (MTT), Met5A; format: cell-based; conditions: Met5A, 1, 10, 100 μM, 24 hr or 48 hr; FIG. 3A
# Protocol: (§1) NCI-H28 which is a cell line of human malignant pleural mesothelioma and Met5A which is a cell line of human non-malignant mesothelioma were used. These cells were purchased from American Type Culture Collection (Manassas, Va., USA). The cells were cultured in Roswell Park Memorial Institute (RPMI)-1640 medium added with 0.003% (w/v) L-glutamine. The cells were incubated in a medium added with 10% (v/v) heat-inactivated bovine serum, penicillin (final concentration, 100 U/ml) and streptomycin (final concentration, 0.1 mg/ml) in a humid environment under 5% CO2 and 95% air at 37° C.
# (§2) The cell viability was evaluated according to previous report (Nogi Y, et al., Cell Physiol Biochem 2012; 30: 61-74.) by using 3-(4,5-dimethyl-2-thiazolyl)-2,5-diphenyl-2H-tetrazolium bromide (MTT). The measurement was performed by treating Met5A (human non-malignant mesothelioma cell) and NCI-H28 (human malignant mesothelioma cell) for 24 hr or 48 hr while changing the concentration of DPPE to 0, 1 μM, 10 μM and 100 μM.
# [2] = tested on: NCI-H28 (human malignant mesothelioma cell); experiment: TUNEL staining, NCI-H28; format: cell-based; conditions: NCI-H28, 30 μM and 100 μM, 48 hr; FIG. 4
# Protocol: (§3) NCI-H28 which is a cell line of human malignant pleural mesothelioma and […] which is a cell line of human non-malignant mesothelioma were used. These cells were purchased from American Type Culture Collection (Manassas, Va., USA). The cells were cultured in Roswell Park Memorial Institute (RPMI)-1640 medium added with 0.003% (w/v) L-glutamine. The cells were incubated in a medium added with 10% (v/v) heat-inactivated bovine serum, penicillin (final concentration, 100 U/ml) and streptomycin (final concentration, 0.1 mg/ml) in a humid environment under 5% CO2 and 95% air at 37° C. To detect in situ DNA fragmentation to be the index of apoptosis, TUNEL staining was performed using In Situ Apoptosis Detection Kit (Takara Bio; Otsu, Japan). The cells fixed and membrane-permeabilized were incubated with terminal deoxynucleotidyl transferase and fluorescein isothiocyanate (FITC)-deoxyuridinetriphosphate at 37° C. for 90 min. FITC signal was visualized by a confocal laser microscope (LSM 510; Carl Zeiss Co., Ltd., Oberkochen, Germany). The cells used were […] (human non-malignant mesothelioma cell) and NCI-H28 (human malignant mesothelioma cell), after a treatment for 48 hr by changing the concentration of DPPE to 0, 30 μM and 100 μM.
# Human recombinant PP2A = experiment: Assay of PP2A activity under cell-free conditions (p-NPP substrate); conditions: 100 μM, preincubated 37° C. 30 min, p-NPP 0.5 mM 60 min, FIG. 1A
# Text: as §4, §5
# [3] = tested on: Met5A (human non-malignant mesothelioma cell); experiment: TUNEL staining, Met5A; format: cell-based; conditions: 30 μM and 100 μM, 48 hr, FIG. 4
# Protocol: as §3
# [4] = tested on: NCI-H28 (human malignant mesothelioma cell); experiment: Cell viability assay (MTT), NCI-H28; format: cell-based; conditions: NCI-H28, 1, 10, 100 μM, 24 hr or 48 hr; FIG. 3B
# Protocol: as §1, §2
smiles,measurement,setting,value
"CCCCCC/C=C\CCCCCCCC(=O)OC[C@H](COP(=O)(O)OCCN)OC(=O)CCCCCCC/C=C\CCCCCC [DPPE, 1,2-dipalmitoleoyl-sn-glycero-3-phosphoethanolamine]",PTP1B activation enhancing action (phosphatase activity relative to control),Human PTP1B (GST fused),PTP1B activation enhancing action
same,cell survival rate (MTT),[1],almost uninfluential on the non-malignant mesothelioma cell
same,apoptosis (TUNEL-stained cells relative to total cells),[2],induces apoptosis of the malignant mesothelioma cell
same,PP2A activation enhancing action (phosphatase activity relative to control),Human recombinant PP2A,strong PP2A activation enhancing action
same,apoptosis (TUNEL-stained cells relative to total cells),[3],does not induce apoptosis of the non-malignant mesothelioma cell
same,cell survival rate (MTT),[4],induces concentration-dependent cell death in the malignant mesothelioma cell
